SMILES strings stand for the structures.

T1 sequence (Q9NZC2 19-230): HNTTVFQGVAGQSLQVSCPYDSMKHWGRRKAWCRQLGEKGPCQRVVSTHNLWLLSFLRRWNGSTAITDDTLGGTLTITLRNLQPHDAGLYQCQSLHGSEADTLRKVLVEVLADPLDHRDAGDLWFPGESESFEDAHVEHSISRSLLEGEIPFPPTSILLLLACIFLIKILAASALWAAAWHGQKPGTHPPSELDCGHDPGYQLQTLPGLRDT
T1 sequence (O43914 22-113 partner): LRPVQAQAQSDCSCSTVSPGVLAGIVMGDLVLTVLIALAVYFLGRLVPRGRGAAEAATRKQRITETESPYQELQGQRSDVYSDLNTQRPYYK

This experiment has as its target T1, human TREM2 (Homo sapiens, UniProt Q9NZC2).
T1 construct: expressed in transfected cells; host or cells: HEK293T (HEK293T-hTREM2 cells)
Put plainly: TREM2 agonist potency by cellular phosphorylation of Spleen Tyrosine Kinase (Syk), AlphaLisa, HEK293T-hTREM2 cells. The class given is cell-based. The conditions noted are these: hTREM2 EC50 Data (HEK293 Cells); Syk phosphorylation, AlphaLisa; read-out: hTREM2 EC50. Summed up:
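HEK293T cells co-expressing human TREM2 and DAP12, plated 20–24 h before use. Compounds applied 45 min at room temperature in assay buffer, then cells lysed and phospho-Syk quantified by AlphaLisa. Percent activation from a standard curve; EC50 from a four-parameter variable-slope fit.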
Background: In Alpha technology, singlet oxygen from a donor bead excites a nearby acceptor bead.
On to `Cc1nc2nc([C@H]3CCO[C@@H](c4ccc(=O)n(C)c4)C3)nc([C@H]3CC[C@@H](F)CC3)c2nc1C` [Example 43, 5-((2R,4S)-4-(4-((1s,4R)-4-fluorocyclohexyl)-6,7-dimethylpteridin-2-yl)tetrahydro-2H-pyran-2-yl)-1-methylpyridin-2(1H)-one], for which the EC50 (commonly the concentration needed to bring the measured effect to its halfway point) is < 100 nM.
The figure for `[2H]C([2H])([2H])n1cc([C@H]2C[C@@H](c3nc(C45CC(C(F)(F)F)(C4)C5)c4nc(OC)c(C)nc4n3)CCO2)cc(C)c1=O` [Example 149, 5-[(2R,4S)-4-[6-methoxy-7-methyl-4-[3-(trifluoromethyl)-1-bicyclo-[1.1.1]pentanyl]pteridin-2-yl]tetrahydropyran-2-yl]-3-methyl-1-(trideuteriomethyl)-pyridin-2-one] is < 100 nM; for `[2H]C([2H])([2H])n1cc([C@H]2C[C@@H](c3nc(C45CC(C(F)(F)F)(C4)C5)c4cc(C(F)(F)F)c(C)nc4n3)CCO2)ccc1=O` [Example 334, 1-(methyl-d3)-5-((2R,4S)-4-(7-methyl-6-(trifluoromethyl)-4-(3-(trifluoromethyl)bicyclo[1.1.1]pentan-1-yl)pyrido[2,3-d]pyrimidin-2-yl)tetrahydro-2H-pyran-2-yl)pyridin-2(1H)-one] it is < 100 nM; for `Cc1nc2nc([C@H]3CCO[C@@H](c4ccc(=O)n(C5CCC5)c4)C3)nc(C34CC(C(F)(F)F)(C3)C4)c2nc1C` [Example 94, 1-cyclobutyl-5-[(2R,4S)-4-[6,7-dimethyl-4-[3-(trifluoromethyl)-1 bicyclo[1.1.1]pentanyl]pteridin-2-yl]tetrahydropyran-2-yl]pyridin-2-one] it is < 100 nM.
For the compound `Cc1nc2nc([C@H]3CCO[C@@H](c4ccc(=O)n(C5COC5)c4)C3)nc(C34CC(C(F)(F)F)(C3)C4)c2nc1C` [Example 107, 5-[(2R,4S)-4-[6,7-dimethyl-4-[3-(trifluoromethyl)-1-bicyclo[1.1.1]pentanyl]pteridin-2-yl]tetrahydropyran-2-yl]-1-(oxetan-3-yl)pyridin-2-one], the EC50 is < 100 nM.

Values taken from patent US20260356841A1, “HETEROCYCLIC PYRIDINONE COMPOUNDS AS TRIGGERING RECEPTOR EXPRESSED ON MYELOID CELLS 2 AGONISTS AND METHODS OF USE” (Vigil Neuroscience, Inc., priority 2023, published 2026).
